In patent publication US11365204B2, “Substituted dihydrothienopyrimidines and their use as phosphodiesterase inhibitors” (UNION therapeutics A/S, priority 2017, dated 2022):

What was measured:
[1] = system: Human peripheral blood mononuclear cells (PBMC); experiment: TNF-α release from LPS-stimulated PBMC; assay type: cell-based; settings: Lipopolysaccharide 1 microg/ml, 18 hours, AlphaLISA, read-out: TNF-α IC50 range
Description: Human peripheral blood mononuclear cells (PBMC) were isolated from fresh buffy coats by density centrifugation using lymphoprep tubes (Medinor). Frozen PBMC's were washed in serum free assay buffer (RPMI1640 with 25 mM HEPES, 1% pen/strep, […] L glutamine, 0.5% human serum albumin) and living cells counted. Lipopolysaccharide (1 microg/ml; SIGMA) was added to the cells which were then transferred to 384 well tissue culture plates ([…]) containing titrated test compounds. The cells were incubated for 18 hours at 37° C. in serum free assay buffer and the level of TNFalpha in the supernatant was quantitated by AlphaLISA (PerkinElmer) by measuring fluorescence intensity at 615 nm.
Results were expressed as IC50 values calculated from inhibition curves using as controls the secretion in LPS stimulated wells and the secretion in cells incubated with 10 microM of a PDE4 inhibitor reference compound.

[2] = molecular target: human PDE4D catalytic domain (UniProt no. Q08499 [S380-L740]) (Homo sapiens (Human), UniProt Q08499); experiment: PDE4 assay (TR-FRET, cAMP hydrolysis); assay type: biochemical; settings: read-out: PDE4 IC50 range
human PDE4D catalytic domain, sequence (Q08499 380-740): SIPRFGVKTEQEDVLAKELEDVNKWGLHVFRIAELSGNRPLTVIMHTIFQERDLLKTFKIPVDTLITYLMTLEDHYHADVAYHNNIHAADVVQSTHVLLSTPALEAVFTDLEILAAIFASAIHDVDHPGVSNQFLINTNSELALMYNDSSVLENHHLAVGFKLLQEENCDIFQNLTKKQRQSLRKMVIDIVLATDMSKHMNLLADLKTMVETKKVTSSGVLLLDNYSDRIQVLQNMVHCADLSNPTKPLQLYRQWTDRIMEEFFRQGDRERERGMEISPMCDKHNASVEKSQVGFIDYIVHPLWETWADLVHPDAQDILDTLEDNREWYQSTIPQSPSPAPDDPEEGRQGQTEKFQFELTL
Description: The human PDE4D catalytic domain (UniProt no. Q08499 [S380-L740]) was incubated with a mixture of non-labelled cAMP (cyclic adenosine monophosphate) and fluorescein amidite (FAM) conjugated cAMP and titrated test or reference compound.
Following brief incubation the enzymatic reaction was stopped by addition of binding buffer containing nanoparticles with immobilized trivalent metal ions capable of binding 1) AMP phospho groups and 2) terbium (Tb) donor fluorophores. Subsequent excitation of the Tb donor triggered time-resolved FRET to adjacent FAM acceptor molecules resulting in light emission. In the presence of a PDE4 inhibitor, AMP generation was reduced resulting in a lower fluorescence signal. The cAMP phosphodiester is not bound by the detection system.
Results were expressed as IC50 values (nM) calculated from inhibition curves where the TR-FRET signal was normalized to Tb fluorescence intensity and the negative (DMSO vehicle) and positive (10 microM a PDE4 inhibitor reference compound) controls.

| Structure (SMILES) | IC50 [1] [nM] | IC50 [2] [nM] |
| --- | --- | --- |
| Cc1ncc(C(=O)OC2CN(c3nc4c(c(N(C)C5CCOCC5)n3)[S+]([O-])CC4)C2)o1 (stereo not drawn) [Example 21, [1-[4-[methyl(tetra-hydropyran-4-yl)amino]-5-oxido-6,7-dihydro-thieno[3,2-d]pyrimidin-5-ium-2-yl]azetidin-3-yl] 2-methyloxazole-5-carboxylate] | < 100 | < 100 |
| CN(c1nc(N2CC(OC(=O)c3ccns3)C2)nc2c1[S+]([O-])CC2)C1CCOCC1 (stereo not drawn) [Example 22, [1-[4-[methyl(tetra-hydropyran-4-yl)amino]-5-oxido-6,7-dihydro-thieno[3,2-d]pyrimidin-5-ium-2-yl]azetidin-3-yl] isothiazole-5-carboxylate] | < 100 | < 100 |
| CN(c1nc(N2CC(OC(=O)C3CCOCC3)C2)nc2c1[S+]([O-])CC2)C1CCOCC1 (stereo not drawn) [Example 23, [1-[4-[methyl(tetra-hydropyran-4-yl)amino]-5-oxido-6,7-dihydro-thieno[3,2-d]pyrimidin-5-ium-2-yl]azetidin-3-yl] tetrahydropyran-4-carboxylate] | < 100 | < 100 |
| Cc1ccccc1C(=O)OC1CN(c2nc3c(c(N(C)C4CCOCC4)n2)[S+]([O-])CC3)C1 (stereo not drawn) [Example 24, [1-[4-[methyl(tetra-hydropyran-4-yl)amino]-5-oxido-6,7-dihydro-thieno[3,2-d]pyrimidin-5-ium-2-yl]azetidin-3-yl] 2-methylbenzoate] | < 100 | < 100 |
| Cc1cccc(C(=O)OC2CN(c3nc4c(c(N(C)C5CCOCC5)n3)[S+]([O-])CC4)C2)c1 (stereo not drawn) [Example 25, [1-[4-[methyl(tetra-hydropyran-4-yl)amino]-5-oxido-6,7-dihydro-thieno[3,2-d]pyrimidin-5-ium-2-yl]azetidin-3-yl] 3-methylbenzoate] | < 100 | < 100 |
| Cc1ccc(C(=O)OC2CN(c3nc4c(c(N(C)C5CCOCC5)n3)[S+]([O-])CC4)C2)cc1 (stereo not drawn) [Example 26, [1-[4-[methyl(tetra-hydropyran-4-yl)amino]-5-oxido-6,7-dihydro-thieno[3,2-d]pyrimidin-5-ium-2-yl]azetidin-3-yl] 4-methylbenzoate] | < 100 | < 100 |
| Cc1ncc(C(=O)OC2CN(c3nc4c(c(N(C)C5CCOCC5)n3)[S+]([O-])CC4)C2)cn1 (stereo not drawn) [Example 27, [1-[4-[methyl(tetra-hydropyran-4-yl)amino]-5-oxido-6,7-dihydro-thieno[3,2-d]pyrimidin-5-ium-2-yl]azetidin-3-yl] 2-methylpyrimidine-5-carboxylate] | < 100 | < 100 |
| CN(c1nc(N2CC(OC(=O)c3ccc(F)cc3)C2)nc2c1[S+]([O-])CC2)C1CCOCC1 (stereo not drawn) [Example 28, [1-[4-[methyl(tetra-hydropyran-4-yl)amino]-5-oxido-6,7-dihydro-thieno[3,2-d]pyrimidin-5-ium-2-yl]azetidin-3-yl] 4-fluorobenzoate] | < 100 | < 100 |
| CN(c1nc(N2CC(OC(=O)c3ccccc3F)C2)nc2c1[S+]([O-])CC2)C1CCOCC1 (stereo not drawn) [Example 29, [1-[4-[methyl(tetra-hydropyran-4-yl)amino]-5-oxido-6,7-dihydro-thieno[3,2-d]pyrimidin-5-ium-2-yl]azetidin-3-yl] 2-fluorobenzoate] | < 100 | < 100 |
| CCn1ccc(C(=O)OC2CN(c3nc4c(c(N(C)C5CCOCC5)n3)[S+]([O-])CC4)C2)n1 (stereo not drawn) [Example 30, [1-[4-[methyl(tetra-hydropyran-4-yl)amino]-5-oxido-6,7-dihydro-thieno[3,2-d]pyrimidin-5-ium-2-yl]azetidin-3-yl] 1-ethylpyrazole-3-carboxylate] | < 100 | < 100 |
| Cc1cc(C(=O)OC2CN(c3nc4c(c(N(C)C5CCOCC5)n3)[S+]([O-])CC4)C2)nn1C (stereo not drawn) [Example 31, [1-[4-[methyl(tetra-hydropyran-4-yl)amino]-5-oxido-6,7-dihydro-thieno[3,2-d]pyrimidin-5-ium-2-yl]azetidin-3-yl] l,5-dimethylpyrazole-3-carboxylate] | < 100 | < 100 |
| CCn1cc(C(=O)OC2CN(c3nc4c(c(N(C)C5CCOCC5)n3)[S+]([O-])CC4)C2)cn1 (stereo not drawn) [Example 32, [1-[4-[methyl(tetra-hydropyran-4-yl)amino]-5-oxido-6,7-dihydro-thieno[3,2-d]pyrimidin-5-ium-2-yl]azetidin-3-yl] 1-ethylpyrazole-4-carboxylate] | < 100 | < 100 |
| CCc1nc(C(=O)OC2CN(c3nc4c(c(N(C)C5CCOCC5)n3)[S+]([O-])CC4)C2)co1 (stereo not drawn) [Example 33, [1-[4-[methyl(tetra-hydropyran-4-yl)amino]-5-oxido-6,7-dihydro-thieno[3,2-d]pyrimidin-5-ium-2-yl]azetidin-3-yl] 2-ethyloxazole-4-carboxylate] | < 100 | < 100 |
| Cc1cc(C(=O)OC2CN(c3nc4c(c(N(C)C5CCOCC5)n3)[S+]([O-])CC4)C2)sn1 (stereo not drawn) [Example 34, [1-[4-[methyl(tetra-hydropyran-4-yl)amino]-5-oxido-6,7-dihydro-thieno[3,2-d]pyrimidin-5-ium-2-yl]azetidin-3-yl] 3-methylisothiazole-5-carboxylate] | < 100 | < 100 |
| Cc1nc(C(=O)OC2CN(c3nc4c(c(N(C)C5CCOCC5)n3)[S+]([O-])CC4)C2)cs1 (stereo not drawn) [Example 35, [1-[4-[methyl(tetra-hydropyran-4-yl)amino]-5-oxido-6,7-dihydro-thieno[3,2-d]pyrimidin-5-ium-2-yl]azetidin-3-yl] 2-methylthiazole-4-carboxylate] | < 100 | < 100 |
| Cc1ncc(C(=O)OC2CN(c3nc4c(c(N(C)C5CCOCC5)n3)[S+]([O-])CC4)C2)s1 (stereo not drawn) [Example 36, [1-[4-[methyl(tetra-hydropyran-4-yl)amino]-5-oxido-6,7-dihydro-thieno[3,2-d]pyrimidin-5-ium-2-yl]azetidin-3-yl] 2-methylthiazole-5-carboxylate] | < 100 | < 100 |
| CN(c1nc(N2CC(OC(=O)[C@H]3CC[C@@H](O)CC3)C2)nc2c1[S+](O)CC2)C1CCOCC1 (stereo partly drawn) [Example 37, [1-[4-[methyl(tetra-hydropyran-4-yl)amino]-5-oxido-6,7-dihydro-thieno[3,2-d]pyrimidin-5-ium-2-yl]azetidin-3-yl] 4-hydroxycyclohexane-carboxylate] | < 100 | < 100 |
| CN(c1nc(N2CC(OC(=O)[C@H]3CC[C@@H](O)CC3)C2)nc2c1[S+](O)CC2)C1CCOCC1 (stereo partly drawn) [Example 38, [1-[4-[methyl(tetra-hydropyran-4-yl)amino]-5-oxido-6,7-dihydro-thieno[3,2-d]pyrimidin-5-ium-2-yl]azetidin-3-yl] 4-hydroxycyclohexane-carboxylate] | < 100 | < 100 |
| CN(c1nc(N2CC(OC(=O)[C@H]3CC[C@H](O)CC3)C2)nc2c1[S+](O)CC2)C1CCOCC1 (stereo partly drawn) [Example 39, [1-[4-[methyl(tetra-hydropyran-4-yl)amino]-5-oxido-6,7-dihydro-thieno[3,2-d]pyrimidin-5-ium-2-yl]azetidin-3-yl] 4-hydroxycyclohexane-carboxylate] | < 100 | < 100 |
| CN(c1nc(N2CC(OC(=O)C3CCSCC3)C2)nc2c1[S+](O)CC2)C1CCOCC1 (stereo not drawn) [Example 40, [1-[4-[methyl(tetra-hydropyran-4-yl)amino]-5-oxido-6,7-dihydro-thieno[3,2-d]pyrimidin-5-ium-2-yl]azetidin-3-yl] tetrahydrothiopyran-4-carboxylate] | < 100 | < 100 |
| Cc1cc(C(=O)OC2CN(c3nc4c(c(N(C)C5CCOCC5)n3)[S+](O)CC4)C2)cc(C)n1 (stereo not drawn) [Example 41, [1-[4-[methyl(tetra-hydropyran-4-yl)amino]-5-oxido-6,7-dihydro-thieno[3,2-d]pyrimidin-5-ium-2-yl]azetidin-3-yl] 2,6-dimethylpyridine-4-carboxylate] | < 100 | < 100 |
| COc1ccc(C(=O)OC2CN(c3nc4c(c(N(C)C5CCOCC5)n3)[S+]([O-])CC4)C2)cc1 (stereo not drawn) [Example 42, [1-[4-[methyl(tetra-hydropyran-4-yl)amino]-5-oxido-6,7-dihydro-thieno[3,2-d]pyrimidin-5-ium-2-yl]azetidin-3-yl] 4-methoxybenzoate] | < 100 | < 100 |
| COc1cccc(C(=O)OC2CN(c3nc4c(c(N(C)C5CCOCC5)n3)[S+](O)CC4)C2)c1 (stereo not drawn) [Example 43, [1-[4-[methyl(tetra-hydropyran-4-yl)amino]-5-oxido-6,7-dihydro-thieno[3,2-d]pyrimidin-5-ium-2-yl]azetidin-3-yl] 3-methoxybenzoate] | < 100 | < 100 |
| CN(c1nc(N2CC(OC(=O)CCS(C)(=O)=O)C2)nc2c1[S+]([O-])CC2)C1CCOCC1 (stereo not drawn) [Example 44] | 100 to 500 | 100 to 500 |
